Measured values reported in patent US20120071475A1, “UREA DERIVATIVES HAVING PI3K-INHIBITING ACTIVITY” (SHIONOGI & CO., LTD., priority 2009, published 2012).

Assays:
CYP3A4 = biological target: T1, CYP3A4 (Homo sapiens, UniProt P08684); assay: CYP3A4 fluorescence MBI test; assay type: in vitro ADME; conditions: difference in IC50 with 0 or 30 minutes pre-reaction; CYP3A4 expressed in E. coli, substrate 7-BFC
T1 construct: host or cells: E. coli
Procedure, shortened: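 E. coli-expressed CYP3A4 debenzylating 5.6 μmol/L 7-BFC to fluorescent 7-HFC (Ex 420/Em 535 nm) in K-Pi pH 7.4 at 25° C, 15 min reaction. NADPH pre-incubation of 0 or 30 min, with 10-fold dilution before reaction. IC50 from 0.625–20 μmol/L (6 points); (+) for an IC50 shift ≥5 μmol/L, (−) for ≤3 μmol/L.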

AKT phosphorylation = AKT phosphorylation inhibitory activity in MCP-1 stimulated THP-1 cells (sandwich ELISA); assay type: cell-based, Human; conditions: Homo sapiens, compound at 1 μmol/L, MCP-1 stimulation, read-out: AKT phosphorylation inhibition ratio
Method: (1) The AKT phosphorylation inhibitory activity of a compound was evaluated according to the following procedure. (2) Human monocyte-like cell line THP-1 was washed with RPMI-1640 media, incubated in the presence of 5% CO2 at 37° C. for 3 hours, washed with Hank's balanced salt solution (HBSS), adjusted to a cell concentration of 6.7×10^6/mL, and then used in an experiment. (3) 30 μL of the cell suspension and 60 μL of each compound solution containing 0.2% DMSO/HBSS were mixed and then preincubated at 37° C. for 5 minutes. 30 μL of HBSS containing 1.2 μg/mL of MCP-1 was added thereto and then incubated for 60 seconds at 37° C. (4) 30 μL of a cell lysate (the final concentrations: 20 mmol/L Tris-HCl (pH 7.5), 150 mmol/L NaCl, 1 mmol/L EDTA, 1 mmol/L EDTA, 1% Triton X-100, 2.5 mmol/L sodium pyrophosphate, 1 mmol/L β-glycerophosphate, 1 mmol/L Na3VO4, 1 μg/ml leupeptin, 50 nmol/L APMSF) was added thereto to lyse cells. (5) The amount of AKT phosphorylation in the cell solution was measured by sandwich ELISA method using anti-Phospho-Akt (Ser473) antibody and anti-AKT1 antibody. (6) Anti-Phospho-Akt (Ser473) antibodies or anti-AKT1 antibodies were immobilized onto the solid phase of a micro well plate. The prepared cell lysate was added to the micro well plate, incubated, and then washed with ELISA wash solution. (7) An anti-AKT1 antibody or anti-Phospho-Akt (Ser473) antibody, which forms a counterpart to an antibody immobilized on the solid phase, was added thereto, incubated, washed similarly, and then reacted with an HRP-labeled anti-mouse IgG antibody. (8) After incubating for 30 minutes and then washing similarly, 100 μL of TMB (3,3′,5,5″-tetramethylbenzidine) was added thereto, followed by reacting for 30 minutes. (9) 100 μL of stop solution was added to quench the color reaction, and then the absorbance at 450 nm was measured. (10) The amount of AKT phosphorylation in a sample in the absence of a compound was defined as 100% activity, and the amount of AKT phosphorylation in a sample in the absence of MCP-1 was defined as 0% activity to calculate an inhibition ratio of each compound. The measurement was performed for a 1 μmol/L solution of each compound.

hERG channel (IKr) = biological target: T2, hERG channel (IKr) (Homo sapiens, UniProt Q12809); assay: hERG test (whole-cell patch-clamp, IKr in HEK293 cells); assay type: cell-based; conditions: human, HEK293 cells expressing hERG channel, pH 7.4, inhibition of maximum tail current (IKr), compound 1 μM
T2 construct: expressed in transfected cells; host or cells: HEK293
T2 sequence (Q12809 whole entry): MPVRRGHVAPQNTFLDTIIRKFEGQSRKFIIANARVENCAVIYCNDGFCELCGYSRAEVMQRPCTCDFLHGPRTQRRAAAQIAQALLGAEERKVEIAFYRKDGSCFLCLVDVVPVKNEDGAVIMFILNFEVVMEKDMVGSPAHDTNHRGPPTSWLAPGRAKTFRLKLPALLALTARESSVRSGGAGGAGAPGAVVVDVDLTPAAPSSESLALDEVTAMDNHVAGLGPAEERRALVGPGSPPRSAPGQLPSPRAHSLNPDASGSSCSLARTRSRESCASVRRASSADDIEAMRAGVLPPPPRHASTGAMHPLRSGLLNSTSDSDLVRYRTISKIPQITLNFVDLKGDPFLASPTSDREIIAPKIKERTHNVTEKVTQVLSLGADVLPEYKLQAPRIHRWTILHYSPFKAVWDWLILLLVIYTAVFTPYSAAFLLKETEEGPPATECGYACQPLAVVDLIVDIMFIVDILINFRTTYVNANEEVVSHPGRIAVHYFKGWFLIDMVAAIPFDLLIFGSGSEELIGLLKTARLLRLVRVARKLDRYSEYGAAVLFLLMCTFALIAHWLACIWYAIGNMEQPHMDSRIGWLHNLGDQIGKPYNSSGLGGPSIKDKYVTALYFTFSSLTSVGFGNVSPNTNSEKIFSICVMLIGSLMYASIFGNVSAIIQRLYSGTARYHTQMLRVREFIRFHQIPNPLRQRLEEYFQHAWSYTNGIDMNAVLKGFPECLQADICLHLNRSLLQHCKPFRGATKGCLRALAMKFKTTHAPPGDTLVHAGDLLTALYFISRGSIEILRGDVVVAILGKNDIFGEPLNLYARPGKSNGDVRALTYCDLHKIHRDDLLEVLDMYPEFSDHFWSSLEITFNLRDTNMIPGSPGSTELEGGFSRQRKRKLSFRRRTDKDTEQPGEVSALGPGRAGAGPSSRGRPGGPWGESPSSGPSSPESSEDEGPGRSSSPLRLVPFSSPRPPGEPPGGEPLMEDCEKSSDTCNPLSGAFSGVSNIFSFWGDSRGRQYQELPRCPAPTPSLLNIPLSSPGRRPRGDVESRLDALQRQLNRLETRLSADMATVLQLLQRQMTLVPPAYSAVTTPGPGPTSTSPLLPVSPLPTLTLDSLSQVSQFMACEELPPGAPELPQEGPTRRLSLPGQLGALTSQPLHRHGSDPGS
Description: For the purpose of risk evaluation of QT interval extension of electrocardiogram, the activity on delayed rectification K^+ current (IKr), which plays an important role in a cardiac ventricle repolarization process, was examined using the HEK293 cell that was made to express human ether-a-go-go related gene (hERG) channel.
Using an automatic patch-clamp system (PatchXpress 7000A, Axon Instruments Inc.), by a whole-cell patch-clamp method, after the cell was maintained at a membrane potential of −80 mV, IKr induced upon applying depolarizing stimulation of +50 mV for 2 seconds and further applying repolarizing stimulation of −50 mV for 2 seconds was recorded. After generated electric current became stable, a test substance dissolved at an intended concentration in extracellular fluid (137 mmol/L NaCl, 4 mmol/L KCl, 1.8 mmol/L CaCl2.2H2O, 1 mmol/L MgCl2.6H2O, 10 mmol/L glucose, 10 mmol/L HEPES (4-(2-hydroxyethyl)-1-piperazineethanesulfonic acid), pH=7.4) was applied to the cell for 10 minutes under room temperature condition. From the obtained IKr, the absolute value of the maximum tail current was measured using analysis software (DataXpress ver. 1, Molecular Devices Corporation) and the value of the electric current in a maintained membrane potential as baseline. Moreover, an inhibition ratio for the maximum tail current prior to the application of the test substance was calculated and then compared with a group of media-application (0.1% dimethylsulfoxide solution) to evaluate influence of the test substance on IKr.

PI3Kγ [1] = biological target: T3, PI3Kγ (Homo sapiens, UniProt P48736); assay: PI3Kγ inhibitory activity (PI3-kinase HTRF assay, inhibition ratio); assay type: biochemical; conditions: 0.5 h, compound at 10 μmol/L; read-out: PI3Kg Inhibition Ratio % (10 μM)
T3 sequence (P48736 whole entry, species assumed): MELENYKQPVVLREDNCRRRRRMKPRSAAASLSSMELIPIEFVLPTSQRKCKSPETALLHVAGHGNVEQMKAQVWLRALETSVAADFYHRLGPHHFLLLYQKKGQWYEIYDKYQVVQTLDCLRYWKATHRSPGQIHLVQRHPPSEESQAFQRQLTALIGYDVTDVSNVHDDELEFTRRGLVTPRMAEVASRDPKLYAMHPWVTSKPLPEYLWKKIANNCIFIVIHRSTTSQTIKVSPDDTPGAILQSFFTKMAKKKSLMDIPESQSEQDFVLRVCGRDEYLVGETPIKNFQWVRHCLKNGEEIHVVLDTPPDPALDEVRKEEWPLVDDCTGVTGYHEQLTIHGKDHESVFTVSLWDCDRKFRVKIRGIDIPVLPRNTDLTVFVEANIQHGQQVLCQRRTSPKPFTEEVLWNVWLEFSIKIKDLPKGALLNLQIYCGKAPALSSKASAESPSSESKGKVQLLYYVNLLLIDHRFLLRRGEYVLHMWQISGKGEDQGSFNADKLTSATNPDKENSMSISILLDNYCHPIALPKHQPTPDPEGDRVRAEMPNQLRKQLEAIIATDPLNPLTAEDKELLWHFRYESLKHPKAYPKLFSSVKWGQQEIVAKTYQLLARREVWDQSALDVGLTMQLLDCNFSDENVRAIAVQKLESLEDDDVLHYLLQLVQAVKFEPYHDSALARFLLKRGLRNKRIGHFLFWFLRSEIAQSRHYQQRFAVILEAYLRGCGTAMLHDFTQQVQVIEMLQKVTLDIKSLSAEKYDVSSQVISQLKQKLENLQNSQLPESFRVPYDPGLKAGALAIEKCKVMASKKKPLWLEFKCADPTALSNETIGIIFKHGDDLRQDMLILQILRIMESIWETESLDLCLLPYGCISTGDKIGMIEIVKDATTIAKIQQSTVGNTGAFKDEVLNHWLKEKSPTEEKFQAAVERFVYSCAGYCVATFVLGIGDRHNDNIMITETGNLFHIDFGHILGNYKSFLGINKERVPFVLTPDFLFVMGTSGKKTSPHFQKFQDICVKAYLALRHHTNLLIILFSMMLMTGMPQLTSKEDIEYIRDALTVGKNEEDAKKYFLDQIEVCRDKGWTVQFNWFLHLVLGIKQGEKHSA
Procedure, shortened: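 Compound at 10 μmol/L preincubated 10 min with PI3Kγ and PIP2 substrate, then reacted with ATP for 30 minutes at room temperature; the compound, substrate and ATP figures as printed (40 μmol/L each) are solution concentrations. HTRF 665/620 nm ratio read after 18 hours. Inhibition ratio calculated against no-compound (100%) and no-enzyme (0%) controls.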

[2] = Metabolic stability test (pooled human liver microsome); assay type: in vitro ADME; conditions: percentage of test compound remained after 30 minutes, pooled human liver microsome 0.5 mg protein/mL, 1 mmol/L NADPH, 37° C., compound 0.5 μM
Procedure, shortened: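 Pooled human liver microsomes (0.5 mg protein/mL) incubated with compound and 1 mmol/L NADPH at 37° C. in pH 7.4 Tris buffer for 0 or 30 min. Parent quantified by LC/MS/MS after methanol/acetonitrile quench; value is % remaining at 30 min versus 0 min.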

PI3Kγ [3] = biological target: T3, PI3Kγ; assay: PI3Kγ inhibitory activity (Ki value); assay type: biochemical; conditions: read-out: PI3Kγ Ki value
Method: The PI3Kγ inhibitory activity (Ki value) of a compound was evaluated according to the following procedure:
5 μL of a compound solution containing 10% DMSO and […] of a compound was changed to 5 μL of a compound solution containing 10% DMSO and either 200, 64, 20, 6.4, 2, 0.64, or 0.20 μmol/L of the compound (optionally, this is diluted to a lower concentration). Using a method similar to the method for measuring PI3Kγ inhibitory activity, inhibition ratios of PI3Kγ were measured in the presence of the compound at 50, 16, 5, 1.6, 0.5, 0.16, and 0.05 μmol/L (optionally, a lower concentration). Then an IC50 value was calculated by a logistic approximation method or the linear regression method using two concentrations that cross 50% inhibition. Separately, the ATP concentration in the reaction solution (40 μmol/L ATP, 10 mmol/L MgCl2, 5 mmol/L DTT) at the time of the start of a reaction in the absence of the compound was changed to 80, 40, 20, 10, 5, 2.5, 1.25, or 0.625 μmol/L. Then, HTRF ratios were measured by a similar method. The value obtained by subtracting the HTRF ratio at each ATP concentration from the HTRF ratio in the absence of PI-3 kinase y was defined as the value obtained by multiplying reaction rate (v) at each ATP concentration with a constant. The Michaelis-Menten constant Km was then calculated by the Lineweaver-Burk plot method. The Ki value of a compound was calculated by the following formula wherein “μM” denotes “μmol/L.”
Ki value ═IC50 value/(1+test ATP concentration (μM)/Km (μM))

T1 sequence (P08684 whole entry): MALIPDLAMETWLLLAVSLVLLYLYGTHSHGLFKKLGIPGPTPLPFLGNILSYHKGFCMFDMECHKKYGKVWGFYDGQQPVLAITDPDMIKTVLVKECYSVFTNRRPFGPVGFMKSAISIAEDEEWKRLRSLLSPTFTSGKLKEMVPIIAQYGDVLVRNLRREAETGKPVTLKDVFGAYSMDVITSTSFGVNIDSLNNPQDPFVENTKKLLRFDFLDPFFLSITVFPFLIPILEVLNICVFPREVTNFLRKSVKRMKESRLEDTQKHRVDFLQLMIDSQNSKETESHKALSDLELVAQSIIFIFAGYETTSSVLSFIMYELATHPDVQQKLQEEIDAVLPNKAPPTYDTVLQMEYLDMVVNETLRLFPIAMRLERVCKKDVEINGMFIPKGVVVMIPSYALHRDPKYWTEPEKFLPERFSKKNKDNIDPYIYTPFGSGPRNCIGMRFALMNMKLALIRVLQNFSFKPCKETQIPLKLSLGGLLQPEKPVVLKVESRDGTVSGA

SMILES	MBI (CYP3A4)	inhibition at 1 µM (AKT phosphorylation) [%]	inhibition at 10 min, 1 µM (hERG channel (IKr)) [%]	inhibition at 10 µM (PI3Kγ [1]) [%]	hLMS_ox(at 0.5 μM) % [2] [%]	Ki (PI3Kγ [3]) [nM]
COc1cc(N2CCc3nc(NC(=O)Nc4cnccc4C(=O)NC(C)C)sc3C2)nc(OC)n1 [Compound I-27]	(−) (When 3 μmol/L or less, the compound is shown as (−))	94.1	2	≥ 95	–	–
CNS(=O)(=O)c1cncc(N2CCc3nc(NC(=O)Nc4ccccc4C(=O)NC(C)C)sc3C2)c1 [Compound I-129]	(−) (When 3 μmol/L or less, the compound is shown as (−))	≥ 95	5.5	≥ 95	–	–
COc1cc(N2CCc3nc(NC(=O)Nc4ccccc4C(=O)NC4CCCC4O)sc3C2)nc(OC)n1 (stereo not drawn) [Compound I-134]	–	93	1.7	≥ 95	88.4	–
COc1cc(N2CCc3nc(NC(=O)Nc4ccccc4C(=O)NC4CCOC4)sc3C2)nc(OC)n1 (stereo not drawn) [Compound I-135]	–	89	1.8	≥ 95	85.8	–
Cc1nc(NC(=O)Nc2ccccc2C(=O)NC(C)C)sc1-c1csc(S(=O)(=O)N2CCC(O)CC2)c1 [Compound I-146]	–	≥ 95	–	77	–	47
COc1cc(N2CCc3nc(NC(=O)Nc4cn(C)nc4C(=O)NCC#N)sc3C2)nc(OC)n1 [Compound I-152]	–	≥ 95	4.7	≥ 95	96.8	–
COc1cc(N2CCc3nc(NC(=O)Nc4cn(C)nc4C(=O)N[C@@H](C)CO)sc3C2)nc(OC)n1 [Compound I-155]	–	≥ 95	2.9	90	95.9	–
COc1cc(N2CCc3nc(NC(=O)Nc4cn(C)nc4C(=O)NC4CCOC4)sc3C2)nc(OC)n1 (stereo not drawn) [Compound I-156]	–	≥ 95	2.7	80	–	–
COc1cc(N2CCc3nc(NC(=O)Nc4ccccc4C(=O)NCC(C)O)sc3C2)nc(OC)n1 (stereo not drawn) [Compound I-157]	–	≥ 95	0.4	87	96.2	–
COc1cc(N2CCc3nc(NC(=O)Nc4ccccc4C(=O)NC(C)C#N)sc3C2)nc(OC)n1 (stereo not drawn) [Compound I-159]	–	≥ 95	3.8	77	85.6	–
COc1cc(N2CCc3nc(NC(=O)Nc4ccccc4C(=O)NC4CCCCC4O)sc3C2)nc(OC)n1 (stereo not drawn) [Compound I-161]	–	93	6.1	≥ 95	–	–
CC(C)NC(=O)c1ccccc1NC(=O)Nc1nc2c(s1)CN(c1cncc(S(C)(=O)=O)c1)CC2 [Compound I-166]	–	76	1.8	≥ 95	–	–
Cc1cc(N2CCc3nc(NC(=O)Nc4ccccc4C(=O)N[C@H](C)CO)sc3C2)nc(Cl)n1 [Compound I-169]	–	75	2.7	≥ 95	94.4	–
CC(C)NC(=O)c1nn(C)cc1NC(=O)Nc1nc2c(s1)CN(c1cncc(C#N)c1)CC2 [Compound I-205]	–	90	0.2	≥ 95	–	–
